Results published in patent US6518423B1, “Benzopiperidine derivatives” (Eisai Co., Ltd., priority 1996, dated 2003).

SMILES | melting point
COC(=O)c1ccc2c(c1)Nc1nccnc1S2 | 265 to 268 °C
Clc1nccn1Cc1ccc2c(c1)Nc1nccnc1S2 | 231 to 232 °C
CCOC(=O)c1ncn(Cc2ccc3c(c2)Nc2nccnc2S3)c1C | 222 to 224 °C
O=C(O)c1ccc(C(=O)c2nccn2Cc2ccc3c(c2)Nc2nccnc2S3)cc1 | 242 to 246 °C
O=C(O)CC1CC2(C1)C1CCCC2CN(Cc2ccc3c(c2)Nc2nccnc2S3)C1 (centres unmarked) | 199 to 201 °C
O=C(O)C(F)=C1C2CCCC1CN(Cc1ccc3c(c1)Nc1nccnc1S3)C2 | 223 to 225 °C (dec.)
CCOP(=O)(Cc1ccc2c(c1)Nc1nccnc1S2)OCC | 164 to 165 °C
CN(Cc1ccc(S(N)(=O)=O)cc1)Cc1ccc2c(c1)Nc1nccnc1S2 | 181 to 184 °C
CN(Cc1ccc(C(=O)O)cc1)Cc1ccc2c(c1)Nc1nccnc1S2 | 241 to 244 °C
O=C(O)CCNC(=O)Cc1ccc2c(c1)Nc1nccnc1S2 | 220 to 225 °C
O=C(Nc1ccccc1)OCc1ccc2c(c1)Nc1nccnc1S2 | 237 to 240 °C
CN(C)c1ncnc2c1ncn2Cc1ccc2c(c1)Nc1nccnc1S2 | 229 to 233 °C
CN(C)c1nc(N(C)C)c2ncn(Cc3ccc4c(c3)Nc3nccnc3S4)c2n1 | 239 to 240 °C
OCCCc1ncnc2c1ncn2Cc1ccc2c(c1)Nc1nccnc1S2 | 174 to 177 °C
OCC#Cc1ncnc2c1ncn2Cc1ccc2c(c1)Nc1nccnc1S2 | 152 to 154 °C (dec.)
N/C(Cc1ccc2c(c1)Nc1nccnc1S2)=N\NS(=O)(=O)c1ccccc1 | 226 to 227 °C
CS(=O)(=O)NC1CN=C(Cc2ccc3c(c2)Nc2nccnc2S3)NC1.Cl (centres unmarked) | 275 to 277 °C
N#CN=C(Cc1ccc2c(c1)Nc1nccnc1S2)NCCS(=O)(=O)[O-].[Na+] | 213 to 215 °C
N#CN=CNCc1ccc2c(c1)Nc1nccnc1S2 | 224 to 226 °C
CN(C)/C=N/Cc1ccc2c(c1)Nc1nccnc1S2 | 218 to 219 °C
CS(=O)(=O)NCCC1CCN(Cc2ccc3c(c2)Nc2nccnc2S3)CC1 | 168 to 170 °C
CS(=O)(=O)NCC1=CCCN(Cc2ccc3c(c2)Nc2nccnc2S3)C1 | 110 to 112 °C
OC(c1ccc2c(c1)Nc1nccnc1S2)c1ccccc1CN1CCCCC1 (centres unmarked) | 219 to 221 °C

SMILES | melting point
O=S(=O)(NC1CCN(Cc2ccc3c(c2)Nc2nccnc2S3)CC1)N1CCCCC1 | 56 to 57 °C
O=S(=O)(NC1CCN(Cc2ccc3c(c2)Nc2nccnc2S3)CC1)N1CCOCC1 | 189 to 190 °C
CC(C)(O)CC1CCN(Cc2ccc3c(c2)Nc2nccnc2S3)CC1 | 187 to 188 °C
N/C(=N\S(N)(=O)=O)C1CCN(Cc2ccc3c(c2)Nc2nccnc2S3)CC1 | 202 to 206 °C
CC(=O)NCC1CCN(Cc2ccc3c(c2)Nc2nccnc2S3)CC1 | 168 to 170 °C
CNc1c(N2CCN(Cc3ccc4c(c3)Nc3nccnc3S4)CC2)c(=O)c1=O | > 300 °C
c1cnc2c(n1)Nc1cc(CN3CCCCCC3)ccc1S2 | 161 to 163 °C
O=C(Cc1ccc2c(c1)Nc1nccnc1S2)NCCCN1CCC(C(=O)O)CC1 | 143 °C (dec.)
CC(CCC1CCN(Cc2ccc3c(c2)Nc2ncncc2S3)CC1)C(=O)O (centres unmarked) | 219 to 220 °C
O=C(O)CNC1CCN(Cc2ccc3c(c2)Nc2nccnc2S3)CC1 | 206 to 208 °C
O=C(O)C#CC1CCN(Cc2ccc3c(c2)Nc2nccnc2S3)CC1 | 155 to 156 °C
CC(CCC1CCN(Cc2cnc3c(c2)Nc2nccnc2S3)CC1)C(=O)O (centres unmarked) | 115 to 118 °C
CS(=O)(=O)N1CCC(N(CC(=O)O)Cc2ccc3c(c2)Nc2nccnc2S3)CC1 | 185 to 189 °C
COC(=O)c1ccc(CN2c3ccccc3Nc3nccnc32)cc1 | 232 to 234 °C
N#Cc1ccc2c(c1)Nc1nccnc1N2 | > 275 °C
CN1c2ccc(C#CCO)cc2Nc2nccnc21 | 241 to 243 °C
c1ccc2c(NCc3ccc4c(c3)Nc3nccnc3S4)nccc2c1 | 222 to 225 °C
NC(=O)c1ccc(NCc2ccc3c(c2)Nc2nccnc2S3)nc1 | 245 to 250 °C
COc1ccc(NCc2ccc3c(c2)Nc2nccnc2S3)c(OC)n1 | 160 to 164 °C
CCOC(=O)C(C)(C)CCCCc1ccc(NCc2ccc3c(c2)Nc2nccnc2S3)cn1 | 160 to 164 °C
CC(C)(CCCCc1ccc(NCc2ccc3c(c2)Nc2nccnc2S3)cn1)C(=O)O | 158 to 161 °C
Cc1cc(NCc2ccc3c(c2)Nc2nccnc2S3)c2ccccc2n1 | 290 to 300 °C
CS(=O)(=O)N(Cc1ccc2c(c1)Nc1nccnc1S2)c1cccnc1 | 208 to 210 °C

Continued, values first:

melting point | SMILES
244 to 246 °C | Cc1nccn1Cc1ccc2c(c1)Nc1nccnc1S2
286 to 287 °C | Nc1nccn1Cc1ccc2c(c1)Nc1nccnc1S2
262 to 264 °C | N#Cc1ccc(-c2cn(Cc3ccc4c(c3)Nc3nccnc3S4)cn2)cc1
275 to 276 °C | O=C(O)/C=C/c1cn(Cc2ccc3c(c2)Nc2nccnc2S3)cn1
202 to 204 °C | COC(C)(C)CC/C(=C\c1ncn(Cc2ccc3c(c2)Nc2nccnc2S3)c1C)C(=O)O
> 298 °C | C/C(=C\c1c(C)ncn1Cc1ccc2c(c1)Nc1nccnc1S2)C(=O)O
95 to 98 °C | OC(c1ccccn1)c1nccn1Cc1ccc2c(c1)Nc1nccnc1S2 (centres unmarked)
188 to 192 °C | Cc1ncn(Cc2ccc3c(c2)Nc2nccnc2S3)c1CO
205 to 206 °C | CC1C[C@@H](C)C2CN(Cc3ccc4c(c3)Nc3nccnc3S4)CC1C21CC(CC(=O)O)C1 (some centres unmarked)
210 to 212 °C | c1cnc2c(n1)Nc1cc(Cn3cnnn3)ccc1S2
206 to 208 °C | c1cnc2c(n1)Nc1cc(Cn3ncnn3)ccc1S2
156 to 188 °C | COC(c1cccnc1)c1ccc2c(c1)Nc1nccnc1S2 (centres unmarked)
161 to 163 °C | CCc1ccc(C(O)c2ccc3c(c2)Nc2nccnc2S3)cn1 (centres unmarked)
110 to 115 °C | CC(CC1C2CN(Cc3ccc4c(c3)Nc3nccnc3S4)CC1C(C)CC2C)C(=O)O (centres unmarked)
203 to 204 °C | CN(Cc1ccc2c(c1)Nc1nccnc1S2)CC1CCC(C(=O)O)CC1 (centres unmarked)
212 °C (dec.) | CCCNC(=O)Cc1ccc2c(c1)Nc1nccnc1S2
272 to 274 °C | N#Cc1ncnc2c1ncn2Cc1ccc2c(c1)Nc1nccnc1S2
228 to 229 °C | c1cnc2c(n1)Nc1cc(Cn3cnc4c(N5CCCCC5)ncnc43)ccc1S2
215 to 217 °C | CCc1ncnc2c1ncn2Cc1ccc2c(c1)Nc1nccnc1S2
266 to 268 °C | CC(=O)c1ncnc2ncn(Cc3ccc4c(c3)Nc3nccnc3S4)c12
175 to 178 °C | CCOC(=O)CCCCSc1ncnc2ncn(Cc3ccc4c(c3)Nc3nccnc3S4)c12
110 to 120 °C (dec.) | CCCCC(Sc1ncnc2c1ncn2Cc1ccc2c(c1)Nc1nccnc1S2)C(=O)O (centres unmarked)
266 to 268 °C | CC(C)NC(Cc1ccc2c(c1)Nc1nccnc1S2)=NC#N
268 to 270 °C | N#CN=C(Cc1ccc2c(c1)Nc1nccnc1S2)NCCO
208 to 210 °C | N#CN=CN(Cc1ccc2c(c1)Nc1nccnc1S2)Cc1ccccn1
> 265 °C (dec.) | CN/C(=C\[N+](=O)[O-])NCc1ccc2c(c1)Nc1nccnc1S2
> 280 °C | Cl.N=C(N)c1ccnc2c1Sc1ccccc1N2
196 to 199 °C | NS(=O)(=O)NC1CCN(Cc2ccc3c(c2)Nc2nccnc2S3)CC1

melting point | SMILES
139 to 142 °C | NC(=O)OC1CCN(Cc2ccc3c(c2)Nc2nccnc2S3)CC1
191 to 192 °C | CN1CCN(Cc2ccc3c(c2)Nc2nccnc2S3)CC1
176 to 180 °C | CC1(O)CCN(Cc2ccc3c(c2)Nc2nccnc2S3)CC1
> 275 °C | O=C1NC(=O)C2(CCN(Cc3ccc4c(c3)Nc3nccnc3S4)CC2)N1
188 to 190 °C | CN(C)S(=O)(=O)CCC1CCN(Cc2ccc3c(c2)Nc2nccnc2S3)CC1
235 to 238 °C | CC(CCC1CCN(CCCc2ccc3c(c2)Nc2nccnc2S3)CC1)C(=O)O (centres unmarked)
155 to 160 °C | COc1cc2c(cc1CN1CCC(CCC(C)C(=O)O)CC1)Nc1nccnc1S2 (centres unmarked)
138 to 140 °C | COc1cc(C2CCN(Cc3ccc4c(c3)Nc3nccnc3S4)CC2)cc(CC(=O)O)c1OC
169 to 172 °C | CC(C(=O)O)C1CC2(CCN(Cc3ccc4c(c3)Nc3nccnc3S4)CC2)C1 (centres unmarked)
149 to 151 °C | O=C(O)CC(=O)NC1CCN(Cc2ccc3c(c2)Nc2nccnc2S3)CC1
192 °C (dec.) | O=C(O)Cc1ccc(C2(O)CCN(Cc3ccc4c(c3)Nc3nccnc3S4)CC2)cc1
261 to 265 °C (dec.) | O=C([O-])Cc1ccc(OC2CCN(Cc3ccc4c(c3)Nc3nccnc3S4)CC2)cc1.[Na+]
125 to 127 °C | CC(C(=O)O)=C1CCN(Cc2ccc3c(c2)Nc2nccnc2S3)CC1
200 to 210 °C | O=C(O)CS(=O)(=O)NC1CCN(Cc2ccc3c(c2)Nc2nccnc2S3)CC1
210 to 215 °C | CS(=O)(=O)N(CC(=O)O)C1CCN(Cc2ccc3c(c2)Nc2nccnc2S3)CC1
204 to 207 °C | O=C(O)COC1CCN(Cc2ccc3c(c2)Nc2nccnc2S3)CC1
> 275 °C | CCOC(=O)c1ccc2c(c1)Nc1nccnc1N2
274 to 275 °C | CN1c2ccc(C#N)cc2Nc2nccnc21
195 to 197 °C | COc1ccc2c(c1)N(C)c1nccnc1N2
189 to 190 °C | COC(=O)CCCN1c2ccccc2Nc2nccnc21
215 to 218 °C | CN1c2ccc(CO)cc2Nc2nccnc21
204 to 208 °C | CN1c2ccc(C(O)C#Cc3ccccc3)cc2Nc2nccnc21 (centres unmarked)
> 275 °C | CN1c2ccc(CNC(=N)N)cc2Nc2nccnc21
245 to 247 °C | CN1c2ccc(C#Cc3ccccc3)cc2Nc2nccnc21
244 to 247 °C | CN(C)c1ccc(NCc2ccc3c(c2)Nc2nccnc2S3)cn1
205 to 208 °C | Cc1ccc(NCc2ccc3c(c2)Nc2nccnc2S3)cn1
200 to 203 °C | Clc1ccc(NCc2ccc3c(c2)Nc2nccnc2S3)nc1
